Results taken from paper PMC11156899, “High-throughput screening unveils nitazoxanide as a potent PRRSV inhibitor by targeting NMRAL1” (Nature Communications, 2024).
Several values for one entry are separate records, joined by “and”; a condition that tells them apart may be missing. Equal entries are not always repeated. Where two headings read alike, the source gives them in different places.

Columns and labels:
[1] = system: Porcine alveolar macrophages (PAM); assay: Cytotoxicity assay (CC50) in PAM cells
Protocol: (§1) A concentration-gradient screening strategy was employed for 141 compounds using indirect immunofluorescence assay (IFA). […] Data are mean ± SEM.
(§2) Cells were seeded in 96-well plates and grown in DMEM supplemented with 10% FBS. Upon reaching confluence, compounds were diluted to varying concentrations in 2% FBS-containing medium. Control wells contained DMEM with 0.5% DMSO. Treated cells were incubated at 37 °C in a 5% CO2 humidified environment for 48 or 72 h, followed by cytotoxicity assessment as outlined in our previous work[21]. […]

PRRSV (GSWW-18 strain) = assay: Anti-PRRSV dose-response (EC50, IFA) in PAM cells; assay type: cell-based, Porcine Reproductive and Respiratory Syndrome Virus; details: Porcine reproductive and respiratory syndrome virus
[2] = system: PRRSV GSWW-18 strain in Marc-145 cells; details: reason for exclusion before third round
Protocol: Subsequently, a second-round screening of the selected 141 compounds was conducted on Marc-145 cells using immunofluorescence assay (IFA) at four different dosage levels (Fig. 2a; Supplementary Fig. 2).
as §1
(1 picture or pasted object on this page, not shown here)

[3] = Cytotoxicity assay (CC50) in PAM cells; details: pig, porcine alveolar macrophages (PAM cells)
Protocol: as §1, §2

PRRSV GSWW-18 strain = assay: In vivo antiviral effect in swine infected with GSWW-18 strain; parameters: species or system pig
NMRAL1 = NMRAL1 (Chlorocebus sabaeus, UniProt A0A0D9R9W0); assay: Surface plasmon resonance, immobilized NMRAL1; assay type: binding; details: SPR
Chain of NMRAL1 (A0A0D9R9W0 entry or part of it): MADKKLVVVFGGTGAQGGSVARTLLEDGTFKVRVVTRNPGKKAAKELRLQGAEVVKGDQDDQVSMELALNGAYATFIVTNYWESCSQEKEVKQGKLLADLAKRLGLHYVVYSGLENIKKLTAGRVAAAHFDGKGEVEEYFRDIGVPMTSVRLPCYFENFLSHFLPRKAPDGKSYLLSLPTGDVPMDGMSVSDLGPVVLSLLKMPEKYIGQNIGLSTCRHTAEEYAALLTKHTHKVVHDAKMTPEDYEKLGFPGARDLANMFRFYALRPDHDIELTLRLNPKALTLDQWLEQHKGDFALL
Protocol: For SPR, the Biacore T200 system (Cytiva) was used to assess binding affinity and kinetics. The Series S Sensor Chip CM5 (BR100530, Cytiva) immobilized 13,000 resonance units (RU) of NMRAL1 (50 μg/ml, pH 4.0, 10 μl/min, 25°C). TIZ (10 to 0.3125 μM) dissolved in a 5% DMSO running buffer (1.05 × HBS-EP+, Cytiva) was applied, with a solvent correction fluid gradient of 4.5–5.8% DMSO. Contact time was set to 120 s for binding and 300 s for dissociation. Post-experiment, data were analyzed using Biacore T200 Evaluation Software 3.0 with Affinity Fit 1:1 Binding model.

[4] = Pharmacokinetics and tissue distribution of TIZ in swine after oral NTZ; assay type: in vivo, pig
Protocol: Fig. 4 NTZ inhibition of PRRSV shedding and transmission. a Viral load in blood, and shedding in oronasal and anal swabs. Viral load or shedding in blood and oronasal swabs were quantified from 2 to 4 dpi, and in anal swabs from 2 to 5 dpi. Viral copy numbers for each pig during this period are presented. b NTZ suppression of PRRSV proliferation in blood. 48 h post infection (infected with 1 × 10^5.5 TCID50 of GSWW-18 strain), pigs were orally administered NTZ at 10 mg/kg or 5 mg/kg at 0 h and 12 h, followed by blood collection via anterior vena cava or ear marginal vein. […] Parameters were calculated using a non-compartmental analysis (NCA). Eighteen pigs were evenly divided into three dosage groups (n = 6), each housed separately, fasted for 12 h before the experiment, and monitored by professional veterinarians for welfare and enclosure cleaning to prevent coprophagia. g Tissue distribution of NTZ’s main metabolite TIZ. Tissues were collected as per Method Pharmacokinetics and Tissue Distribution of NTZ, quantifying TIZ content at various times (n = 2). […] Symbols represent three or six independent biological replicates (a, b, f) Scatter plots (a, f) show mean ± SD values of samples, with P-values as indicated, calculated via two-way ANOVA with Dunnett’s multiple-comparison test (a), P-values < 0.0332 were considered significant. […]

NSP12 = assay: Surface plasmon resonance, NSP12 purified in vitro; assay type: binding, PRRSV GSWW-18 strain
Description: Supplementary Fig. 10: The Affinity of Nsp1α and Nsp12 with TIZ is Lower Than That of NMRAL1.
(a) The KD value of NMRAL1 obtained through the Affinity fit model.
(b) The KD value of Nsp1α determined using the Kinetics fit model.
(c) The KD value of Nsp1α obtained through the Affinity fit model.
'FT' is the flow-through after passing through the Ni column. 'Ni-200' and 'Ni-500' represent different purification conditions with varying concentrations. 'L2' is the total cell lysate after changing the expression conditions. 'S2' is the supernatant after cell lysis with changed expression conditions. The portions highlighted in red boxes indicate the target protein. […]
constant (KD) between Nsp1α and TIZ is lower than that of NMRAL1. We observe that […]
attempting different systems (Fig. R5 e-h). Although SPR confirms the interaction […]
possibly be attributed to the abnormal protein conformation of NSP12 purified by IBs.
The existing data also indicate that the early addition of NTZ produces a more pronounced antiviral effect (Extended Data Fig. 9), and the overexpression of NMRAL1 can almost negate the antiviral action of NTZ. This leads us to speculate that NMRAL1 may be one of the primary targets of NTZ's mechanism of action, while Nsp1α and NSP12 may serve as secondary targets.
Fig.R5 Validation of the binding between Nsp1α and Nsp12 with TIZ through SPR,

[5] = third round of screening, PAM cells
[6] = PAM cells, mean ± SEM, n = 2, unit only on axis title, read-out: EC50

## CC(=O)c1ccc2c(c1)N(CCCN1CCN(CCO)CC1)c1ccccc1S2 [Acetophenazine]
[1]; [5]
  cytotoxicity (in words): low cytotoxicity
PRRSV (GSWW-18 strain)
  EC50: 718 ± 224 nM

## CN(C)CCCOc1nn(Cc2ccccc2)c2ccccc12 [Benzydamine]
[1]
  cytotoxicity (in words): low cytotoxicity
PRRSV (GSWW-18 strain); [6]
  EC50: 2010 ± 469 nM

## CCN(CC)CCCC(C)Nc1ccnc2cc(Cl)ccc12 (stereo not shown) [Chloroquine]
[1]; [5]
  cytotoxicity (in words): low cytotoxicity
PRRSV (GSWW-18 strain); [6]
  EC50: 1520 ± 475 nM

## C[C@H]1O[C@@H](O[C@H]2CC[C@@]3(C)[C@H](CC[C@@H]4[C@@H]3C[C@@H](O)[C@]3(C)[C@@H](C5=CC(=O)OC5)CC[C@]43O)C2)C[C@H](O)[C@@H]1O[C@H]1C[C@H](O)[C@H](O[C@H]2C[C@H](O)[C@H](O[C@@H]3O[C@H](CO)[C@@H](O)[C@H](O)[C@H]3O)[C@@H](C)O2)[C@@H](C)O1 [Deslanoside]
[2]
  cytotoxicity (in words): high cytotoxicity

## Nc1ccn([C@@H]2O[C@H](CO)[C@@H](O)C2(F)F)c(=O)n1 [Gemcitabine]
PRRSV (GSWW-18 strain); [6]
  EC50: 109 ± 29 nM

## CCN(CCO)CCCC(C)Nc1ccnc2cc(Cl)ccc12 (stereo not shown) [Hydroxychloroquine]
[1]
  cytotoxicity (in words): low cytotoxicity
PRRSV (GSWW-18 strain); [6]
  EC50: 1090 ± 187 nM

## CS(=O)(=O)CCNCc1ccc(-c2ccc3ncnc(Nc4ccc(OCc5cccc(F)c5)c(Cl)c4)c3c2)o1 [Lapatinib]
[3]
  CC50: 9510 ± 243 nM
PRRSV (GSWW-18 strain); [6]
  EC50: 1770 ± 535 nM

## CN(Cc1cnc2nc(N)nc(N)c2n1)c1ccc(C(=O)N[C@@H](CCC(=O)O)C(=O)O)cc1 [Methotrexate]
[3]
  CC50: 6830 ± 2250 nM
PRRSV (GSWW-18 strain); [6]
  EC50: 307 ± 316 nM

## COc1c(C)c2c(c(O)c1C/C=C(\C)CCC(=O)O)C(=O)OC2 [Mycophenolic acid]
PRRSV (GSWW-18 strain); [6]
  EC50: 305 ± 67 nM

## CN1CCC(=C2c3ccccc3CCc3sccc32)CC1 [Pizotifen]
[1]
  cytotoxicity (in words): low cytotoxicity
PRRSV (GSWW-18 strain); [6]
  EC50: 541 ± 140 nM

## NC(=O)c1ncn([C@@H]2O[C@H](CO)[C@@H](O)[C@H]2O)n1 [RBV, Ribavirin]
PRRSV GSWW-18 strain; blood, oronasal and anal swabs
  viral load and shedding, setting of efficacy: effective only in the prophylactic setting
PRRSV GSWW-18 strain; positive control group
  efficacy against PRRSV in swine: appeared to lack efficacy

## CCC(CC)COC(=O)[C@H](C)N[P@](=O)(OC[C@H]1O[C@@](C#N)(c2ccc3c(N)ncnn23)[C@H](O)[C@@H]1O)Oc1ccccc1 [Remdesivir]
[1]
  cytotoxicity (in words): low cytotoxicity
PRRSV (GSWW-18 strain); [6]
  EC50: 4990 ± 2370 nM

## O=C(Nc1ncc([N+](=O)[O-])s1)c1ccccc1O [TIZ, Tizoxanide]
NMRAL1; NMRAL1 vs NSP1α and NSP12
  affinity compared between proteins: higher than that of NSP1α and NSP12
NMRAL1; legend of Fig. 6o, Supplementary Fig. 10a (Affinity fit model)
  Kd: 4500 nM
NMRAL1; value printed in Fig. 6o with ka and kd
  Kd: ~2870 nM and 2870 nM
NMRAL1; read-out: ka
  kon: 2380 M⁻¹ s⁻¹
NMRAL1; read-out: kd
  koff: 0.00683 s⁻¹
[4]; pig tissues after oral NTZ, n = 2
  tissue distribution: primarily distributed in small and large intestines, MesLNs, ILNs, but not in high concentrations in lungs
[4]; pig, in vivo, po, 25 mg/kg
  Tmax: 2.167 h
NSP12
  interaction with NSP12 (SPR): weak interaction

## CN(C/C=C/C#CC(C)(C)C)Cc1cccc2ccccc12 [Terbinafine]
[1]
  cytotoxicity (in words): low cytotoxicity
PRRSV (GSWW-18 strain); [6]
  EC50: 1220 ± 328 nM
